From patent EP4603105A1, “PHARMACEUTICAL COMPOSITION CONTAINING CYCLIC COMPOUND HAVING SELECTIVE KRAS INHIBITORY EFFECT AGAINST HRAS AND NRAS” (CHUGAI SEIYAKU KABUSHIKI KAISHA, priority 2022, dated 2024)
Read-outs that look alike come from different tables or passages of the source. Where a SMILES comes first, the peptide text is derived from it. Bridges are numbered along the chain shown (N, C = ends). [ ]: non-standard residue; d: D form. The star is where a group is joined. hPhe(3-Cl-4-CF3) = N[C@@H](CCc1ccc(C(F)(F)F)c(Cl)c1)C(=O)O; NPrPhe(4-CF3) = CCCN[C@@H](Cc1ccc(C(F)(F)F)cc1)C(=O)O; NMeGly(cPent) = CN[C@H](C(=O)O)C1CCCC1; Hyp = O=C(O)[C@@H]1C[C@@H](O)CN1; NMeD = CN[C@@H](CC(=O)O)C(=O)O; NMeL = CN[C@@H](CC(C)C)C(=O)O; Morpholide = C1CN(*)CCO1; Ac4c = NC1(C(=O)O)CCC1; NEtG = CCNCC(=O)O; Sar = CNCC(=O)O

What was measured:
[1] = test system: human lung cancer strain NCI-H441; format: cell-based
In short: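 Signal came from […] measured per well once the reagent was added. Beforehand, cells were cultured at 37°C and 5% carbon dioxide on a compound series serially diluted in dimethyl sulfoxide.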

[2] = molecular target: GDP-bound NRAS wild-type protein (Homo sapiens, UniProt P01111); assay: Binding to NRAS by surface plasmon resonance (SPR), KD and KD ratio to KRAS
Chain of GDP-bound NRAS wild-type protein (P01111 whole entry): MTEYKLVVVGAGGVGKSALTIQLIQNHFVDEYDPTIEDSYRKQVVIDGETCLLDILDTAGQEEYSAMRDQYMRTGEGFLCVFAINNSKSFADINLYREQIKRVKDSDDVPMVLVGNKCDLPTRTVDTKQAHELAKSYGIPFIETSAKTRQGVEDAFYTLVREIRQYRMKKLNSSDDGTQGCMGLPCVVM
In short: (§1)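 Measured at 30°C: SPR with GDP-loaded, E. coli-expressed biotin-Avi RAS captured (~100–300 RU), ascending 75 s compound injections, HBS pH 7.4 with GDP, MgCl2, 4% DMSO. KD from 1:1 fit.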

HRAS wild-type protein = HRAS wild-type protein (Homo sapiens, UniProt P01112); assay: Binding to HRAS by surface plasmon resonance (SPR), KD and KD ratio to KRAS
Chain of HRAS wild-type protein (P01112 whole entry): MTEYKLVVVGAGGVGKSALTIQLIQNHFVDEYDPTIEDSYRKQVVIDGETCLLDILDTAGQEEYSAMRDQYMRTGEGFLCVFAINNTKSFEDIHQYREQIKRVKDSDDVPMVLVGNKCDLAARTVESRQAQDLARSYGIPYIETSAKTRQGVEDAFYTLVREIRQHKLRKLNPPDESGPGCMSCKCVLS
In short: as §1

[3] = ratio of the KD value with respect to GDP-bound NRAS wild-type protein to the KD value with respect to KRAS
[4] = ratio of the KD value with respect to HRAS wild-type protein to the KD value with respect to KRAS
[5] = ratio of KD for GDP-bound NRAS wild-type protein to KD for KRAS
[6] = ratio of KD for HRAS wild-type protein to KD for KRAS
[7] = ratio of KD value for GDP-bound NRAS wild-type protein to KD value for KRAS (SPR)
[8] = ratio of KD value for HRAS wild-type protein to KD value for KRAS (SPR)

IC50 [1] [nM]	Compound	NRAS /KRAS [2, 3]	HRAS /KRAS (HRAS wild-type protein; [4])	NRAS /KRAS [2, 5]	HRAS /KRAS (HRAS wild-type protein; [6])	NRAS /KRAS [2, 7]	HRAS /KRAS (HRAS wild-type protein; [8])	IC50 ([1]; NCI-H441 cells, 4 days, CellTiter-Glo, read-out: NCl-H441 IC50) [nM]
5.4	CC[C@H](C)[C@@H]1NC(=O)[C@H](CC(C)C)N(C)C(=O)C[C@@H](C(=O)N2CCCC2)N(C)C(=O)[C@H](C2CCCC2)N(C)C(=O)C2(CCCC2)NC(=O)[C@@H]2CCCN2C(=O)[C@H](CCc2cc(F)c(C(F)(F)F)c(F)c2)NC(=O)CN(C)C(=O)[C@H](Cc2ccc(C(F)(F)F)cc2)N2CCCC[C@@H](C2=O)N(C)C(=O)CN(C)C1=O [PP0571]	B (a compound having 3 or more and less than 10 is denoted as B)	B (a compound having 3 or more and less than 10 is denoted as B)					
11.9	CCO[C@@H]1C[C@H]2C(=O)NC3(CCC3)C(=O)N(C)[C@@H](C3CCCC3)C(=O)N(C)[C@H](C(=O)N(C)C)CC(=O)N(C)[C@@H](Cc3cccc(Cl)c3)C(=O)N[C@@H]([C@@H](C)CC)C(=O)N(C)CC(=O)N(C)[C@H]3C/C=C\CCN(C3=O)[C@@H](Cc3ccc(C(F)(F)F)cc3)C(=O)N(C)CC(=O)N[C@@H](CCc3cc(F)c(C(F)(F)F)c(F)c3)C(=O)N2C1 [PP1127]			AA (a compound having 20 or more is denoted as AA)	A (a compound having 10 or more and less than 20 is denoted as A)			
3.4	CCCC[C@H]1C(=O)N[C@@H]([C@@H](C)CC)C(=O)N(C)CC(=O)N(C)[C@H]2C/C=C\CCN(C2=O)[C@@H](Cc2ccc(C(F)(F)F)cc2)C(=O)N(C)CC(=O)N[C@@H](CCc2ccc(C(F)(F)F)c(Cl)c2)C(=O)N2C[C@H](OCC)C[C@H]2C(=O)NC2(CC(C)(C)C2)C(=O)N(C)[C@@H](C2CCCC2)C(=O)N(C)[C@H](C(=O)N(C)C)CC(=O)N1C [PP1750]					A (a compound having 10 or more and less than 20 is denoted as A)	B (a compound having 3 or more and less than 10 is denoted as B)	
79.5	CC[C@H](C)[C@@H]1NC(=O)[C@H](CC(C)C)N(C)C(=O)C[C@@H](C(=O)N2CCOCC2)N(C)C(=O)[C@H](CC(F)(F)F)N(C)C(=O)C2(CCCC2)NC(=O)[C@@H]2CCCN2C(=O)[C@H](CCc2cc(F)c(C(F)(F)F)c(F)c2)NC(=O)CN(C)C(=O)[C@H](Cc2ccc(C(F)(F)F)cc2)N2CCCC[C@@H](C2=O)N(C)C(=O)CN(C)C1=O [PP0568]	B (a compound having 3 or more and less than 10 is denoted as B)	B (a compound having 3 or more and less than 10 is denoted as B)					
16.2	CCO[C@@H]1C[C@H]2C(=O)NC3(CC(C)(C)C3)C(=O)N(C)[C@@H](C(CC)CC)C(=O)N(C)[C@H](C(=O)N(C)C)CC(=O)N(C)[C@@H](CC3CCC3)C(=O)N[C@@H]([C@@H](C)CC)C(=O)N(C)CC(=O)N(C)[C@H]3C/C=C\CCN(C3=O)[C@@H](Cc3ccc(C(F)(F)F)cc3)C(=O)N(C)CC(=O)N[C@@H](CCc3cc(F)c(C(F)(F)F)c(F)c3)C(=O)N2C1 [PP2133]	AA (a compound having 20 or more is denoted as AA)	A (a compound having 10 or more and less than 20 is denoted as A)					
	CCOC[C@H]1C(=O)N[C@@H]([C@@H](C)CC)C(=O)N(C)CC(=O)N(C)[C@H]2C/C=C\CCN(C2=O)[C@@H](Cc2ccc(C3CC3)cc2)C(=O)N(C)CC(=O)N[C@@H](CCc2ccc(C(F)(F)F)c(OC)c2)C(=O)N2C[C@@H](C)C[C@H]2C(=O)NC2(CC(C)(C)C2)C(=O)N(C)[C@@H](C2CCCC2)C(=O)N(C)[C@H](C(=O)N(C)CC)CC(=O)N1C [PP2700]			A (a compound having 10 or more and less than 20 is denoted as A)	B (a compound having 3 or more and less than 10 is denoted as B)			23.1
23.2	CCO[C@@H]1C[C@H]2C(=O)NC3(CCC3)C(=O)N(C)[C@@H](C3CCCC3)C(=O)N(C)[C@H](C(=O)N(C)C)CC(=O)N(C)[C@@H](CC(C)C)C(=O)N[C@@H]([C@@H](C)CC)C(=O)N(C)CC(=O)N(C)[C@H]3C/C=C\CCN(C3=O)[C@@H](Cc3ccc(F)cc3)C(=O)N(C)CC(=O)N[C@@H](CCc3cc(F)c(C(F)(F)F)c(F)c3)C(=O)N2C1 [PP1488]					A (a compound having 10 or more and less than 20 is denoted as A)	B (a compound having 3 or more and less than 10 is denoted as B)	
8.6	CCO[C@@H]1C[C@H]2C(=O)NC3(CCC3)C(=O)N(C)[C@@H](C3CCCC3)C(=O)N(C)[C@H](C(=O)N(C)CC)CC(=O)N(C)[C@@H](CC3CCC3)C(=O)N[C@@H]([C@@H](C)CC)C(=O)N(C)CC(=O)N(C)[C@H]3C/C=C\CCN(C3=O)[C@@H](Cc3ccc(C(F)(F)F)cc3)C(=O)N(C)CC(=O)N[C@@H](CCc3ccc(C(F)(F)F)c(Cl)c3)C(=O)N2C1 [PP2826]			A (a compound having 10 or more and less than 20 is denoted as A)	A (a compound having 10 or more and less than 20 is denoted as A)			
10.3	CCC[C@H]1C(=O)N[C@@H]([C@@H](C)CC)C(=O)N(C)CC(=O)N(C)[C@H]2C/C=C\CCN(C2=O)[C@@H](Cc2ccc(C)cc2)C(=O)N(C)CC(=O)N[C@@H](CCc2cc(Cl)c3sccc3c2)C(=O)N2C[C@H](OCC)C[C@H]2C(=O)NC2(CC(C)(C)C2)C(=O)N(C)[C@@H](C(CC)CC)C(=O)N(C)[C@H](C(=O)N(C)C)CC(=O)N1C [PP2890]			AA (a compound having 20 or more is denoted as AA)	A (a compound having 10 or more and less than 20 is denoted as A)			
34.2	CCCN1C(=O)CN(C)C(=O)CN(CC)C(=O)[C@H]([C@@H](C)CC)NC(=O)[C@H](CC(C)C)N(C)C(=O)C[C@@H](C(=O)N(C)C)NC(=O)[C@H](C2CCCC2)N(C)C(=O)C2(CCC2)NC(=O)[C@@H]2C[C@@H](OCC)CN2C(=O)[C@H](CCc2ccc(C(F)(F)F)c(Cl)c2)NC(=O)CN(C)C(=O)[C@@H]1Cc1ccc(C(F)(F)F)cc1 [PP0372] ([NMeL]I[NEtG][Sar][NPrPhe(4-CF3)][Sar][hPhe(3-Cl-4-CF3)][Hyp](Et)[Ac4c][NMeGly(cPent)]D-NMe2; lactam N-11)			B (a compound having 3 or more and less than 10 is denoted as B)	B (a compound having 3 or more and less than 10 is denoted as B)			
134	CC[C@H](C)[C@@H]1NC(=O)[C@H](CC(C)C)N(C)C(=O)C[C@@H](C(=O)N2CCOCC2)N(C)C(=O)[C@H](C2CCCC2)N(C)C(=O)C2(CCC2)NC(=O)[C@@H]2[C@@H](O)CCN2C(=O)[C@H](CCc2cc(F)c(C(F)(F)F)c(F)c2)NC(=O)CN(C)C(=O)[C@H](Cc2ccc(C(F)(F)F)cc2)N2CCCC[C@@H](C2=O)N(C)C(=O)CN(C)C1=O [PP0869]			B (a compound having 3 or more and less than 10 is denoted as B)	B (a compound having 3 or more and less than 10 is denoted as B)			
33.5	CCO[C@@H]1C[C@H]2C(=O)NC3(CCC3)C(=O)N(C)[C@@H](C3CCCC3)C(=O)N3CCC[C@@H]3CC(=O)N(C)[C@@H](CC3CC3)C(=O)N[C@@H]([C@@H](C)CC)C(=O)N(C)CC(=O)N(C)[C@H]3C/C=C\CCN(C3=O)[C@@H](Cc3ccc(C(F)(F)F)cc3)C(=O)N(C)CC(=O)N[C@@H](CCc3ccc(C(F)(F)F)c(OC)c3)C(=O)N2C1 [PP1616]					B (a compound having 3 or more and less than 10 is denoted as B)	B (a compound having 3 or more and less than 10 is denoted as B)	
86	CCC[C@H]1C(=O)N[C@@H]([C@@H](C)CC)C(=O)N(C)CC(=O)N(C)[C@H]2C/C=C\CCN(C2=O)[C@@H](Cc2ccc(C(F)(F)F)cc2)C(=O)N(C)CC(=O)N[C@@H](CCc2ccc3ccn(C)c3c2)C(=O)N2C[C@H](OCC)C[C@H]2C(=O)NC2(CC(C)(C)C2)C(=O)N(C)[C@@H](C(CC)CC)C(=O)N(C)[C@H](C(=O)N(C)C)CC(=O)N1C [PP2912]			AA (a compound having 20 or more is denoted as AA)	A (a compound having 10 or more and less than 20 is denoted as A)			
2.7	CCCN1C(=O)CN(C)C(=O)CNC(=O)[C@H]([C@@H](C)CC)NC(=O)[C@H](CC(C)C)N(C)C(=O)C[C@@H](C(=O)N2CCOCC2)N(C)C(=O)[C@H](C2CCCC2)N(C)C(=O)C2(CCC2)NC(=O)[C@@H]2CCCN2C(=O)[C@H](CCc2ccc(C(F)(F)F)c(Cl)c2)NC(=O)CN(C)C(=O)[C@@H]1Cc1ccc(C(F)(F)F)cc1 [PP0393] ([NMeL]IG[Sar][NPrPhe(4-CF3)][Sar][hPhe(3-Cl-4-CF3)]P[Ac4c][NMeGly(cPent)][NMeD]-Morpholide; lactam N-11)	B (a compound having 3 or more and less than 10 is denoted as B)	B (a compound having 3 or more and less than 10 is denoted as B)					
9.5	CCCN1C(=O)CN(C)C(=O)CN(CC)C(=O)[C@H]([C@@H](C)CC)NC(=O)[C@H](CC(C)C)N(C)C(=O)C[C@@H](C(=O)N(C)C)N(C)C(=O)[C@H](C2CCCC2)N(C)C(=O)C2(CCC2)NC(=O)[C@@H]2CCCN2C(=O)[C@H](CCc2ccc(C(F)(F)F)c(Cl)c2)NC(=O)CN(C)C(=O)[C@@H]1Cc1ccc(C(F)(F)F)cc1 [PP0424] ([NMeL]I[NEtG][Sar][NPrPhe(4-CF3)][Sar][hPhe(3-Cl-4-CF3)]P[Ac4c][NMeGly(cPent)][NMeD]-NMe2; lactam N-11)	B (a compound having 3 or more and less than 10 is denoted as B)	C (A compound having a KD ratio of 0.1 or more and less than 3 is denoted as C)					
